From patent US10322191B2, “Targeted conjugates and particles and formulations thereof” (TARVEDA THERAPEUTICS, INC., priority 2014, dated 2019)
Where two headings read alike, the source gives them in different places. Bridge positions count the residues as written; N and C are the ends. Square brackets hold non-standard residues; d marks the D form. Peptide text beside a SMILES is read from it. * marks the point of attachment. X1 = COc1cc2cc(c1Cl)N(C)C(=O)C[C@H](OC(=O)[C@H](C)N(C)C(=O)CCS*)[C@]1(C)O[C@H]1[C@H](C)[C@@H]1C[C@@](O)(NC(=O)O1)[C@H](OC)/C=C/C=C(\C)C2; Thr(ol) = C[C@@H](O)[C@H](N)CO; Mpa = O=C(O)CCS

Tested on: NCI-H524 (ATCC) human lung cancer cells
Format: cell-based
Protocol: Conjugates were assessed in an in vitro assay evaluating inhibition of cell proliferation. NCI-H524 (ATCC) human lung cancer cells were plated in 96 well, V-bottomed plates (Costar) at a concentration of 5,000 cells/well and 24 hours later were treated with compound for 2 hours and further incubated 70 hours. Compound starting dose was 20 μM and three-fold serial dilutions were done for a total of ten points. After 2 hours of treatment, cells were spun down, the drug containing media was removed, and fresh complete medium was added and used to resuspend the cells, which were spun again. After removal of the wash media, the cells were resuspended in complete medium, then transferred into white walled, flat bottomed 96 well plates. […] Proliferation was measured using CellTiter Glo reagent using the standard protocol (Promega) and a Glomax multi+detection system (Promega). Percent proliferation inhibition was calculated using the following formula: % inhibition=(control-treatment)/control*100. Control is defined as vehicle alone. IC50 curves were generated using the nonlinear regression analysis (four parameter) with GraphPad Prism 6.
Conjugates of the present invention were assessed in an in vitro assay evaluating inhibition of cell proliferation. NCI-H524 (ATCC) human lung cancer cells were plated in 96 well, V-bottomed plates (Costar) at a concentration of 5,000 cells/well. 24 hours later, cells were treated with either conjugate for 2 hours and further incubated 70 hours, or for octreotide competition experiments, treated with 100 μM octreotide for 30 min, and then treated with conjugate for 2 hours, and further incubated for 70 hours. Conjugate starting dose was 20 μM and three fold serial dilutions were done for a total of ten points. After 2 hours of treatment, cells were spun down, the drug containing media was removed, and fresh complete medium was added and used to resuspend the cells, which were spun again. After removal of the wash media, the cells were resuspended in complete medium, then transferred into white walled, flat bottomed 96 well plates. […] Proliferation was measured using CellTiter Glo reagent using the standard protocol (Promega) and a Glomax multi+detection system (Promega). Percent proliferation inhibition was calculated using the following formula: % inhibition=(control-treatment)/control*100. Control is defined as vehicle alone. IC50 curves were generated using the nonlinear regression analysis (four parameter) with GraphPad Prism 6.
Conjugates of the present invention were tested for their activity dependence on the somatostatin receptor. Active agent Z in the conjugate was selected from auristatin, carbazitaxel, DM1, doxorubicin, platinum, SN-38 and vinblastine. Active agent Z is connected to octreotide with various linkers. Proliferation IC50 values of the conjugates were measured. Proliferation IC50 values of the conjugates without octreotide competition were also measured. The ratio of IC50 with octreotide competition and IC50 without octreotide competition is an indicator of whether activity is at least partially dependent on bind to the somatostatin receptor.

[1] = Table 15, treated 2 hours, further incubated 70 hours, read-out: H524 IC50
[2] = read-out: H524 IC50+ 100 uM octreotide, Table 15, 100 μM octreotide for 30 min, then conjugate 2 hours, 70 hours incubation

COc1cc2cc(c1Cl)N(C)C(=O)C[C@H](OC(=O)[C@H](C)N(C)C(=O)CCSSCCCN1CCN(CC(=O)N[C@H](Cc3ccccc3)C(=O)N[C@H]3CSSC[C@@H](C(=O)N[C@H](CO)[C@@H](C)O)NC(=O)[C@H]([C@@H](C)O)NC(=O)[C@H](CCCCN)NC(=O)[C@@H](Cc4c[nH]c5ccccc45)NC(=O)[C@H](Cc4ccccc4)NC3=O)CC1)[C@]1(C)O[C@H]1[C@H](C)[C@@H]1C[C@@](O)(NC(=O)O1)[C@H](OC)/C=C/C=C(\C)C2 [Conjugate 86]
IC50 [1]: 386 nM | IC50 [2]: 553 nM

COc1cc2cc(c1Cl)N(C)C(=O)C[C@H](OC(=O)[C@H](C)N(C)C(=O)CCSSCCC(=O)N[C@H](Cc1ccccc1)C(=O)N[C@H]1CSSC[C@@H](C(=O)N[C@H](C(=O)O)[C@@H](C)O)NC(=O)[C@H]([C@@H](C)O)NC(=O)[C@H](CCCCN)NC(=O)[C@@H](Cc3c[nH]c4ccccc34)NC(=O)[C@H](Cc3ccc(O)cc3)NC1=O)[C@]1(C)O[C@H]1[C@H](C)[C@@H]1C[C@@](O)(NC(=O)O1)[C@H](OC)/C=C/C=C(\C)C2 [Conjugate 74]
IC50 [1]: 549 nM | IC50 [2]: 562 nM

COc1cc2cc(c1Cl)N(C)C(=O)C[C@H](OC(=O)[C@H](C)N(C)C(=O)CCSSCCC(=O)NCCNC(=O)[C@H](Cc1c[nH]c3ccccc13)NC(=O)[C@@H]1CSSC[C@H](NC(=O)[C@H](N)Cc3ccccc3)C(=O)N[C@@H](Cc3ccc(O)cc3)C(=O)N[C@H](Cc3c[nH]c4ccccc34)C(=O)N[C@@H](CCCCN)C(=O)N[C@@H]([C@@H](C)O)C(=O)N1)[C@]1(C)O[C@H]1[C@H](C)[C@@H]1C[C@@](O)(NC(=O)O1)[C@H](OC)/C=C/C=C(\C)C2 [Conjugate 45]
IC50 [1]: 345 nM | IC50 [2]: 481 nM

COc1cc2cc(c1Cl)N(C)C(=O)C[C@H](OC(=O)[C@H](C)N(C)C(=O)CCSSCCC(=O)N[C@H](Cc1ccccc1)C(=O)N[C@H]1CSSC[C@@H](C(=O)N[C@@H](Cc3c[nH]c4ccccc34)C(N)=O)NC(=O)[C@H](C(C)C)NC(=O)[C@H](CCCCN)NC(=O)[C@@H](Cc3c[nH]c4ccccc34)NC(=O)[C@H](Cc3ccc(O)cc3)NC1=O)[C@]1(C)O[C@H]1[C@H](C)[C@@H]1C[C@@](O)(NC(=O)O1)[C@H](OC)/C=C/C=C(\C)C2 [Conjugate 70] ([Mpa](X1)[dF]CY[dW]KVCW-NH2; disulfide 3-8)
IC50 [1]: 317 nM | IC50 [2]: 417 nM

COc1cc2cc(c1Cl)N(C)C(=O)C[C@H](OC(=O)[C@H](C)N(C)C(=O)CCSSCCOCCOCCOCCOCCCN[C@H](Cc1ccccc1)C(=O)N[C@H]1CSSC[C@@H](C(=O)N[C@H](CO)[C@@H](C)O)NC(=O)[C@H]([C@@H](C)O)NC(=O)[C@H](CCCCN)NC(=O)[C@@H](Cc3c[nH]c4ccccc34)NC(=O)[C@H](Cc3ccccc3)NC1=O)[C@]1(C)O[C@H]1[C@H](C)[C@@H]1C[C@@](O)(NC(=O)O1)[C@H](OC)/C=C/C=C(\C)C2 [Conjugate 96]
IC50 [1]: 206 nM | IC50 [2]: 397 nM

COc1cc2cc(c1Cl)N(C)C(=O)C[C@H](OC(=O)[C@H](C)N(C)C(=O)CCSSC[C@H](N)C(=O)N[C@@H](CCCCN)C(=O)N[C@@H](CCCCN)C(=O)N[C@@H](CCCCN)C(=O)N[C@@H](CCCCN)C(=O)N[C@H](Cc1ccccc1)C(=O)N[C@H]1CSSC[C@@H](C(=O)N[C@H](CO)[C@@H](C)O)NC(=O)[C@H]([C@@H](C)O)NC(=O)[C@H](CCCCN)NC(=O)[C@@H](Cc3c[nH]c4ccccc34)NC(=O)[C@H](Cc3ccccc3)NC1=O)[C@]1(C)O[C@H]1[C@H](C)[C@@H]1C[C@@](O)(NC(=O)O1)[C@H](OC)/C=C/C=C(\C)C2 [Conjugate 7] (H-C(X1)KKKK[dF]CF[dW]KTC[Thr(ol)]; disulfide 7-12)
IC50 (Table 6, treated 2 hours, further incubated 70 hours, read-out: H524 IC50): 955 nM | IC50 (read-out: H524 IC50 + 100 μM octreotide, Table 6, with octreotide competition): 1770 nM | IC50 [2]: 1770 nM
